Assay results as given in patent US8247211B2, “Glycopeptide antibiotics” (American Cyanamid Company, priority 2001, dated 2012).

Legend:
Assay in all cases: In vitro antibacterial evaluation: minimum inhibitory concentration (MIC), broth dilution method
Assay type in all cases: cell-based
Enterococcus sp. = system: Enterococcus sp.
Method in brief: (§1)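 Broth dilution per NCCLS M7-A2 in Muller-Hinton II […], inoculum 5×10^5 CFU/mL, antibiotic tested over 64-0.06 μg/mL. MIC is taken as the lowest concentration that inhibits growth. Panel includes recent clinical isolates resistant to methicillin, penicillin and/or vancomycin.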

Escherichia coli = system: Escherichia coli
Method in brief: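 An MIC is reported for each organism as the least concentration giving inhibition, using broth dilution over 64-0.06 μg/mL with a 5×10^5 CFU/mL inoculum.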

Staphylococcus sp. = details: broth dilution, 18 hours at 35° C.
Method in brief: as §1

Streptococcus sp. = system: Streptococcus sp.
Method in brief: as §1

[1] = broth dilution, inoculum 5×10^5 CFU/mL, 18 hours at 35° C.

CC(c1ccccc1)C1NC(=O)CNC(=O)C(CO)NC(=O)C(C(O)C2CNC(=N)N2C2OC(CO)C(O)C(O)C2O)NC(=O)C(C(O)C2CNC(=N)N2)NC(=O)C(Cc2ccc(OC3OC(CO)C(OC4OC5COC(c6ccc(C=Cc7ccccc7)cc6)OC5C(O)C4O)C(O)C3O)cc2)NC1=O (stereo not drawn) [Example 172]
2 µg/mL: MIC Enterococcus faecalis (GC 6189) (Enterococcus sp.; [1]) | MIC Enterococcus faecalis (GC 6189) (Enterococcus sp.; strain GC 6189) | MIC Escherichi coli (GC 4560) (Escherichia coli; strain GC 4560) | MIC Coagulase Negative Staphylococcus (GC 4548) (Staphylococcus sp.; 5×10^5 CFU/mL) | MIC Coagulase Negative Staphylococcus (GC 4549) (Staphylococcus sp.; 5×10^5 CFU/mL) | MIC Coagulase Negative Staphylococcus (GC 6257) (Staphylococcus sp.; 5×10^5 CFU/mL) | MIC Staphylococcus aureus (GC 4542) (Staphylococcus sp.; 5×10^5 CFU/mL) | MIC Staphylococcus aureus (GC 4542) (Staphylococcus sp.; strain GC 4542)
0.12 µg/mL: MIC Streptococcus pyogenes (GC 4563) (Streptococcus sp.; [1]) | MIC Streptococcus pyogenes (GC 4563) (Streptococcus sp.; strain GC 4563)
4 µg/mL: MIC Enterococcus avium (GC 4558) (Enterococcus sp.; [1]) | MIC Enterococcus faecalis (GC 2242) (Enterococcus sp.; [1]) | MIC Enterococcus faecalis (GC 2691) (Enterococcus sp.; [1]) | MIC Enterococcus faecalis (GC 4553) (Enterococcus sp.; [1]) | MIC Enterococcus faecalis (GC 4554) (Enterococcus sp.; [1]) | MIC Enterococcus faecalis (GC 2242) (Enterococcus sp.; strain GC 2242) | MIC Enterococcus faecalis (GC 2691) (Enterococcus sp.; strain GC 2691) | MIC Enterococcus faecalis (GC 4553) (Enterococcus sp.; strain GC 4553) | MIC Enterococcus faecalis (GC 4554) (Enterococcus sp.; strain GC 4554) | MIC Enterococcus avium (GC 4558) (Enterococcus sp.; strain GC 4558) | MIC Coagulase Negative Staphylococcus (GC 4551) (Staphylococcus sp.; 5×10^5 CFU/mL) | MIC Staphylococcus aureus (ATCC 29213) (Staphylococcus sp.; 5×10^5 CFU/mL) | MIC Staphylococcus aureus (GC 3051) (Staphylococcus sp.; 5×10^5 CFU/mL) | MIC Staphylococcus aureus (GC 3053) (Staphylococcus sp.; 5×10^5 CFU/mL) | MIC Staphylococcus aureus (GC 4541) (Staphylococcus sp.; 5×10^5 CFU/mL) | MIC Staphylococcus aureus (GC 4545) (Staphylococcus sp.; 5×10^5 CFU/mL) | MIC Staphylococcus aureus (ATCC 29213) (Staphylococcus sp.; strain ATCC 29213) | MIC Staphylococcus aureus (GC 3051) (Staphylococcus sp.; strain GC 3051) | MIC Staphylococcus aureus (GC 3053) (Staphylococcus sp.; strain GC 3053) | MIC Staphylococcus aureus (GC 4541) (Staphylococcus sp.; strain GC 4541) | MIC Staphylococcus aureus (GC 4545) (Staphylococcus sp.; strain GC 4545)
>64 µg/mL: MIC Escherichia coli (ATCC 25922) (Escherichia coli; strain ATCC 25922) | MIC Escherichia coli (GC 4559) (Escherichia coli; strain GC 4559)
<0.06 µg/mL: MIC Streptococcus agalactiae (GC 4564) (Streptococcus sp.; [1]) | MIC Streptococcus pneumoniae (ATCC 6301) (Streptococcus sp.; [1]) | MIC Streptococcus pneumoniae (GC 1894) (Streptococcus sp.; [1]) | MIC Streptococcus pneumoniae (GC 4565) (Streptococcus sp.; [1]) | MIC Streptococcus pneumoniae (ATCC 6301) (Streptococcus sp.; strain ATCC 6301) | MIC Streptococcus pneumoniae (GC 1894) (Streptococcus sp.; strain GC 1894) | MIC Streptococcus agalactiae (GC 4564) (Streptococcus sp.; strain GC 4564) | MIC Streptococcus pneumoniae (GC 4565) (Streptococcus sp.; strain GC 4565)
8 µg/mL: MIC Enterococcus faecalis (ATCC 29212) (Enterococcus sp.; [1]) | MIC Enterococcus faecalis (GC 3059) (Enterococcus sp.; [1]) | MIC Enterococcus faecalis (GC 4552) (Enterococcus sp.; [1]) | MIC Enterococcus faecium (GC 2243) (Enterococcus sp.; [1]) | MIC Enterococcus faecium (GC 4556) (Enterococcus sp.; [1]) | MIC Enterococcus faecium (GC 4557) (Enterococcus sp.; [1]) | MIC Enterococcus faecalis (ATCC 29212) (Enterococcus sp.; strain ATCC 29212) | MIC Enterococcus faecium (GC 2243) (Enterococcus sp.; strain GC 2243) | MIC Enterococcus faecalis (GC 3059) (Enterococcus sp.; strain GC 3059) | MIC Enterococcus faecalis (GC 4552) (Enterococcus sp.; strain GC 4552) | MIC Enterococcus faecium (GC 4556) (Enterococcus sp.; strain GC 4556) | MIC Enterococcus faecium (GC 4557) (Enterococcus sp.; strain GC 4557) | MIC Coagulase Negative Staphylococcus (GC 4547) (Staphylococcus sp.; 5×10^5 CFU/mL) | MIC Staphylococcus aureus (GC 1131) (Staphylococcus sp.; 5×10^5 CFU/mL) | MIC Staphylococcus aureus (GC 4544) (Staphylococcus sp.; 5×10^5 CFU/mL) | MIC Staphylococcus aureus-SMITH (GC 4543) (Staphylococcus sp.; 5×10^5 CFU/mL) | MIC Staphylococcus haemolyticus (GC 4546) (Staphylococcus sp.; 5×10^5 CFU/mL) | MIC Staphylococcus aureus (GC 1131) (Staphylococcus sp.; strain GC 1131) | MIC Staphylococcus aureus (GC 4544) (Staphylococcus sp.; strain GC 4544)
